According to ChEMBL document CHEMBL1144565, “Anti-breast cancer activity of LFM-A13, a potent inhibitor of Polo-like kinase (PLK)” (Bioorg Med Chem, 2007):
Active and inactive are the calls of the source. The rule behind the calls is not given here.

Tests used:
[1] = tested on: Mus musculus; assay: Subacute toxicity in CD1 mouse assessed as absolute lymphocyte counts at 10 mg/kg, ip after 30 days; type: organism-based; set-up: dose 10 mg/kg, route intraperitoneal; conditions: in vivo, 720 h
[2] = target: T1, Serine/threonine-protein kinase PLK3 (Homo sapiens, UniProt Q9H4B4); assay: Inhibition of human PLK3 in presence of 25 uM ATP
T1 sequence (Q9H4B4 whole entry): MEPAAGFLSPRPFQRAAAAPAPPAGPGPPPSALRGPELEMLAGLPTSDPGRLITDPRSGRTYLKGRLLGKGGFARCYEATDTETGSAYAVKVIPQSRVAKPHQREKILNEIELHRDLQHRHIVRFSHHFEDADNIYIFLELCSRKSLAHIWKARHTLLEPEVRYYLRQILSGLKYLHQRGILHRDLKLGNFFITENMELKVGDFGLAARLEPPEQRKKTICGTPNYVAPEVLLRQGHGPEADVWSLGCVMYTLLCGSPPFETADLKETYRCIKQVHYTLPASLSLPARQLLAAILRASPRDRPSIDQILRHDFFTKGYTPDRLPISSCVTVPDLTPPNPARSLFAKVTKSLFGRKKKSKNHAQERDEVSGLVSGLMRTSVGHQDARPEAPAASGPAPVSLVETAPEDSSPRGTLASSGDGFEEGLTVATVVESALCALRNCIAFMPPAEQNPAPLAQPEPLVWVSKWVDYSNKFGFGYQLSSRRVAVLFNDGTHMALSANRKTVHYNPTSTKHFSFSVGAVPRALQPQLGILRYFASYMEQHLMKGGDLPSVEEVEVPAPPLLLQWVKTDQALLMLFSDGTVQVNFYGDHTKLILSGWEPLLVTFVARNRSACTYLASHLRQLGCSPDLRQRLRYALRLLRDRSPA

[3] = tested on: Mus musculus; assay: Toxicity in daily po dosed BALB/c mouse; type: organism-based; conditions: in vivo
[4] = target: Cyclin-dependent kinase 3 (Homo sapiens, UniProt Q00526); assay: Inhibition of CDK3
Chain of Cyclin-dependent kinase 3 (Q00526 whole entry): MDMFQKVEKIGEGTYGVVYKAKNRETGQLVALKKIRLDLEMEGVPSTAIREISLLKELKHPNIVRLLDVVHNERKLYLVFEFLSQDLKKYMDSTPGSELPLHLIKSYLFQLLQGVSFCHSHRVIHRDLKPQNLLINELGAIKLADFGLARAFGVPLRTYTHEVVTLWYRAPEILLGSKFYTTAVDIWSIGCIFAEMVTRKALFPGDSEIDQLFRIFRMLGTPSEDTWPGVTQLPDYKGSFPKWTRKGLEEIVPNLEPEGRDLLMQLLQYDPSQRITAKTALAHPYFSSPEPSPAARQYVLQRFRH

[5] = tested on: Mus musculus; assay: Effect on non-proliferating tissue in po dosed BALB/c mouse assessed as toxic lesions in kidney; type: ADME, organism-based; conditions: in vivo
[6] = tested on: Mus musculus; assay: Effect on non-proliferating tissue in po dosed BALB/c mouse assessed as toxic lesions in lung; type: ADME, organism-based; conditions: in vivo
[7] = tested on: Mus musculus; assay: Subacute toxicity in CD1 mouse assessed as WBC counts at 20 mg/kg, ip after 30 days; type: organism-based; set-up: dose 20 mg/kg, route intraperitoneal; conditions: in vivo, 720 h
[8] = tested on: Mus musculus; assay: Acute toxicity in CD1 mouse assessed as absolute neutrophil counts at 80 mg/kg, ip after 7 days; type: organism-based; set-up: dose 80 mg/kg, route intraperitoneal; conditions: in vivo, 168 h
[9] = target: T1, Serine/threonine-protein kinase PLK3; assay: Inhibition of human PLK3 in presence of 100 uM ATP
[10] = tested on: PTK1; assay: Antiproliferative activity against anaphase PTK1 cells assessed as delay in mitosis completion; type: functional, cell-based; conditions: Potorous tridactylus
[11] = target: Tyrosine-protein kinase Yes (Homo sapiens, UniProt P07947); assay: Inhibition of YES kinase
Chain of Tyrosine-protein kinase Yes (P07947 whole entry): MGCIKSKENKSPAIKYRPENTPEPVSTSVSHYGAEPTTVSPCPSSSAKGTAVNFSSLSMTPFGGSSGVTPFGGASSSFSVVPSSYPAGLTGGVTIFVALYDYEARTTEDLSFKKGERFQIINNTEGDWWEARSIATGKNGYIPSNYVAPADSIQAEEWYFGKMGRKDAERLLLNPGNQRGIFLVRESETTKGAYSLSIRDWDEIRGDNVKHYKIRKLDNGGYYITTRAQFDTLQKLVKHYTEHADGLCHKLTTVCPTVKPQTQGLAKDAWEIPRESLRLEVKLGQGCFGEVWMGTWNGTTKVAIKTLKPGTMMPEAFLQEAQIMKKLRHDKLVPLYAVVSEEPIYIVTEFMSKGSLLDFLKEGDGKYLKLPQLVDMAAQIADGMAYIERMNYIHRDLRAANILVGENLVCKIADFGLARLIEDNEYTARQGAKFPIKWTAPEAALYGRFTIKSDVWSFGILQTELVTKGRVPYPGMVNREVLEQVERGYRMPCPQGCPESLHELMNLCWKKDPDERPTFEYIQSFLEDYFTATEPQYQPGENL

[12] = tested on: Mus musculus; assay: Acute toxicity in CD1 mouse assessed as WBC counts at 10 mg/kg, ip after 7 days; type: organism-based; set-up: dose 10 mg/kg, route intraperitoneal; conditions: in vivo, 168 h
[13] = tested on: Mus musculus; assay: Toxicity in ip dosed CD1 mouse; type: organism-based; conditions: in vivo
[14] = tested on: Mus musculus; assay: Effect on non-proliferating tissue in ip dosed CD1 mouse assessed as toxic lesions in myocardium; type: ADME, organism-based; conditions: in vivo
[15] = tested on: Rattus norvegicus; assay: Toxicity in Lewis rat assessed as absolute neutrophil counts at 40 mg/kg, iv after 7 days; type: organism-based; set-up: dose 40 mg/kg, route intravenous; conditions: in vivo, 168 h
[16] = tested on: Mus musculus; assay: Subacute toxicity in CD1 mouse assessed as myeloid or lymphoid hyperplasia in bone marrow at 80 mg/kg, ip after 30 days; type: organism-based; set-up: dose 80 mg/kg, route intraperitoneal; conditions: in vivo, 720 h
[17] = tested on: Rattus norvegicus; assay: Toxicity in Lewis rat assessed as absolute lymphocyte counts at 40 mg/kg, iv after 7 days; type: organism-based; set-up: dose 40 mg/kg, route intravenous; conditions: in vivo, 168 h
[18] = tested on: Mus musculus; assay: Subacute toxicity in CD1 mouse assessed as absolute lymphocyte counts at 80 mg/kg, ip after 30 days; type: organism-based; set-up: dose 80 mg/kg, route intraperitoneal; conditions: in vivo, 720 h
[19] = tested on: Mus musculus; assay: Subacute toxicity in CD1 mouse assessed as absolute neutrophil counts at 40 mg/kg, ip after 30 days; type: organism-based; set-up: dose 40 mg/kg, route intraperitoneal; conditions: in vivo, 720 h
[20] = tested on: Mus musculus; assay: Acute toxicity in CD1 mouse assessed as absolute neutrophil counts at 10 mg/kg, ip after 7 days; type: organism-based; set-up: dose 10 mg/kg, route intraperitoneal; conditions: in vivo, 168 h
[21] = target: Phosphatidylinositol 4,5-bisphosphate 3-kinase catalytic subunit gamma isoform (Homo sapiens, UniProt P48736); assay: Inhibition of PI3Kgamma
Chain of Phosphatidylinositol 4,5-bisphosphate 3-kinase catalytic subunit gamma isoform (P48736 whole entry, canonical isoform): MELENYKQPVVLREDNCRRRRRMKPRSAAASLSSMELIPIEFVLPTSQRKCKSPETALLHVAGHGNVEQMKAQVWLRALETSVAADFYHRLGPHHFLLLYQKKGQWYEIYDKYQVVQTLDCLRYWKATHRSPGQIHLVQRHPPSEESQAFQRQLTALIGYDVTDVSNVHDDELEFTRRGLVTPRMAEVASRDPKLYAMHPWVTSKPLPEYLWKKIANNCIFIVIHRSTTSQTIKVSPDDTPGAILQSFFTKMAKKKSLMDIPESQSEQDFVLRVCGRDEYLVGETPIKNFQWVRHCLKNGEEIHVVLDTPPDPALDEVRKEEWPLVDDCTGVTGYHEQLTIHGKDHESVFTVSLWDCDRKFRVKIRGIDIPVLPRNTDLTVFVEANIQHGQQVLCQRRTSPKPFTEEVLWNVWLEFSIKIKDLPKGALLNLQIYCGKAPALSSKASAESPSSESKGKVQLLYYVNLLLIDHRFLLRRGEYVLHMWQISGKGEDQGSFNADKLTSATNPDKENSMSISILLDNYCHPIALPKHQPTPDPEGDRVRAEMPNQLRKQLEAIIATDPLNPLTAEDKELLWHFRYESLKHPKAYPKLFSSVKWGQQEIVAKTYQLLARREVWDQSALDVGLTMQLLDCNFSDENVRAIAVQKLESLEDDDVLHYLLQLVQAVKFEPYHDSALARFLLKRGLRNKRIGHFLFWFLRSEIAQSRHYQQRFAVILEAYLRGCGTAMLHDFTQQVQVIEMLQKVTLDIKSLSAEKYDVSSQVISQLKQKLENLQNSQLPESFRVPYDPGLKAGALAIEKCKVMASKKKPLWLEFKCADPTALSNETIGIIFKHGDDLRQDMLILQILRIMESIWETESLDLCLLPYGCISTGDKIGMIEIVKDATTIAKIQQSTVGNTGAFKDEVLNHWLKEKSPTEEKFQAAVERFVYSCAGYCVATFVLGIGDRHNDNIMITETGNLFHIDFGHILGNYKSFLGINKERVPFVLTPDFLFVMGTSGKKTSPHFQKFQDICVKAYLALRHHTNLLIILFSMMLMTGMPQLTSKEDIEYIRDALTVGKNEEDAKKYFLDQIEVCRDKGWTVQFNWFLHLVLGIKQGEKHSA

[22] = tested on: Mus musculus; assay: Acute toxicity in CD1 mouse assessed as myeloid or lymphoid hyperplasia in bone marrow at 20 mg/kg, ip after 7 days; type: organism-based; set-up: dose 20 mg/kg, route intraperitoneal; conditions: in vivo, 168 h
[23] = tested on: Mus musculus; assay: Anti-breast cancer activity in ip dosed MMTV/Neu transgenic mouse assessed as tumor progression delay; type: functional, organism-based
[24] = target: Platelet-derived growth factor receptor (Homo sapiens, UniProt P09619+P16234); assay: Inhibition of PDGFR; type: protein-complex assay
[25] = tested on: Mus musculus; assay: Subacute toxicity in CD1 mouse assessed as myeloid or lymphoid hyperplasia in bone marrow at 10 mg/kg, ip after 30 days; type: organism-based; set-up: dose 10 mg/kg, route intraperitoneal; conditions: in vivo, 720 h
[26] = tested on: Mus musculus; assay: Acute toxicity in CD1 mouse assessed as absolute lymphocyte counts at 80 mg/kg, ip after 7 days; type: organism-based; set-up: dose 80 mg/kg, route intraperitoneal; conditions: in vivo, 168 h
[27] = tested on: Mus musculus; assay: Subacute toxicity in CD1 mouse assessed as absolute neutrophil counts at 80 mg/kg, ip after 30 days; type: organism-based; set-up: dose 80 mg/kg, route intraperitoneal; conditions: in vivo, 720 h
[28] = tested on: Rattus norvegicus; assay: Effect on non-proliferating tissue in iv dosed Lewis rat assessed as toxic lesions in lung on day 7; type: ADME, organism-based; conditions: in vivo
[29] = target: Cytoplasmic tyrosine-protein kinase BMX (Homo sapiens, UniProt P51813); assay: Inhibition of BMX kinase
Chain of Cytoplasmic tyrosine-protein kinase BMX (P51813 whole entry): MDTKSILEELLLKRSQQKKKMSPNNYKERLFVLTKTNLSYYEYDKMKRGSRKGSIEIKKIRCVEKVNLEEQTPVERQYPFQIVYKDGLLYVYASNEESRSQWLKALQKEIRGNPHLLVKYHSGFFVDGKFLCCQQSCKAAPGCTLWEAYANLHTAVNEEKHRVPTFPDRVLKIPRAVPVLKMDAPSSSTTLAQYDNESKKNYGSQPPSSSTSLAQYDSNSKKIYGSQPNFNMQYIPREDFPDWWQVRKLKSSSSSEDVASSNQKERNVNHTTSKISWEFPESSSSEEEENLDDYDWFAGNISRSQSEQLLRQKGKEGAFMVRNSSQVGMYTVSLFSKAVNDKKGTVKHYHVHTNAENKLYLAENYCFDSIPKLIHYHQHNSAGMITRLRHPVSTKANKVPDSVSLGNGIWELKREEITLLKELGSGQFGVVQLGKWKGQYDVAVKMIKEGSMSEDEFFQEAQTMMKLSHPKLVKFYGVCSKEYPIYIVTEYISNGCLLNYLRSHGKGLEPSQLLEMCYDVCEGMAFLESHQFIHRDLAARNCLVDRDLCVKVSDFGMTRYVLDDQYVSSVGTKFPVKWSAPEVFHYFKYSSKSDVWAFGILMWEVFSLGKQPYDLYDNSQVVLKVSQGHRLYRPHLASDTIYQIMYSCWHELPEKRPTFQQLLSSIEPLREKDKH

[30] = tested on: Mus musculus; assay: Acute toxicity in CD1 mouse assessed as absolute lymphocyte counts at 40 mg/kg, ip after 7 days; type: organism-based; set-up: dose 40 mg/kg, route intraperitoneal; conditions: in vivo, 168 h
[31] = tested on: Mus musculus; assay: Acute toxicity in CD1 mouse assessed as absolute neutrophil counts at 20 mg/kg, ip after 7 days; type: organism-based; set-up: dose 20 mg/kg, route intraperitoneal; conditions: in vivo, 168 h
[32] = tested on: Mus musculus; assay: Acute toxicity in CD1 mouse assessed as absolute lymphocyte counts at 20 mg/kg, ip after 7 days; type: organism-based; set-up: dose 20 mg/kg, route intraperitoneal; conditions: in vivo, 168 h
[33] = tested on: Mus musculus; assay: Effect on non-proliferating tissue in ip dosed CD1 mouse assessed as toxic lesions in pancreas; type: ADME, organism-based; conditions: in vivo
[34] = tested on: Rattus norvegicus; assay: Toxicity in Lewis rat assessed as WBC counts at 80 mg/kg, iv after 7 days; type: organism-based; set-up: dose 80 mg/kg, route intravenous; conditions: in vivo, 168 h
[35] = tested on: Mus musculus; assay: Acute toxicity in CD1 mouse assessed as myeloid or lymphoid hyperplasia in bone marrow at 10 mg/kg, ip after 7 days; type: organism-based; set-up: dose 10 mg/kg, route intraperitoneal; conditions: in vivo, 168 h
[36] = tested on: Mus musculus; assay: Acute toxicity in CD1 mouse assessed as absolute lymphocyte counts at 10 mg/kg, ip after 7 days; type: organism-based; set-up: dose 10 mg/kg, route intraperitoneal; conditions: in vivo, 168 h
[37] = tested on: Mus musculus; assay: Acute toxicity in CD1 mouse assessed as WBC counts at 80 mg/kg, ip after 7 days; type: organism-based; set-up: dose 80 mg/kg, route intraperitoneal; conditions: in vivo, 168 h
[38] = tested on: Mus musculus; assay: Toxicity in po dosed BALB/c mouse; type: organism-based; conditions: in vivo
[39] = tested on: PTK1; assay: Antiproliferative activity against prometaphase PTK1 cells assessed as complete arrest at 1 mM within 50 mins; type: functional, cell-based; conditions: Potorous tridactylus
[40] = target: Mast/stem cell growth factor receptor Kit (Homo sapiens, UniProt P10721); assay: Inhibition of C-Kit kinase
Chain of Mast/stem cell growth factor receptor Kit (P10721 whole entry): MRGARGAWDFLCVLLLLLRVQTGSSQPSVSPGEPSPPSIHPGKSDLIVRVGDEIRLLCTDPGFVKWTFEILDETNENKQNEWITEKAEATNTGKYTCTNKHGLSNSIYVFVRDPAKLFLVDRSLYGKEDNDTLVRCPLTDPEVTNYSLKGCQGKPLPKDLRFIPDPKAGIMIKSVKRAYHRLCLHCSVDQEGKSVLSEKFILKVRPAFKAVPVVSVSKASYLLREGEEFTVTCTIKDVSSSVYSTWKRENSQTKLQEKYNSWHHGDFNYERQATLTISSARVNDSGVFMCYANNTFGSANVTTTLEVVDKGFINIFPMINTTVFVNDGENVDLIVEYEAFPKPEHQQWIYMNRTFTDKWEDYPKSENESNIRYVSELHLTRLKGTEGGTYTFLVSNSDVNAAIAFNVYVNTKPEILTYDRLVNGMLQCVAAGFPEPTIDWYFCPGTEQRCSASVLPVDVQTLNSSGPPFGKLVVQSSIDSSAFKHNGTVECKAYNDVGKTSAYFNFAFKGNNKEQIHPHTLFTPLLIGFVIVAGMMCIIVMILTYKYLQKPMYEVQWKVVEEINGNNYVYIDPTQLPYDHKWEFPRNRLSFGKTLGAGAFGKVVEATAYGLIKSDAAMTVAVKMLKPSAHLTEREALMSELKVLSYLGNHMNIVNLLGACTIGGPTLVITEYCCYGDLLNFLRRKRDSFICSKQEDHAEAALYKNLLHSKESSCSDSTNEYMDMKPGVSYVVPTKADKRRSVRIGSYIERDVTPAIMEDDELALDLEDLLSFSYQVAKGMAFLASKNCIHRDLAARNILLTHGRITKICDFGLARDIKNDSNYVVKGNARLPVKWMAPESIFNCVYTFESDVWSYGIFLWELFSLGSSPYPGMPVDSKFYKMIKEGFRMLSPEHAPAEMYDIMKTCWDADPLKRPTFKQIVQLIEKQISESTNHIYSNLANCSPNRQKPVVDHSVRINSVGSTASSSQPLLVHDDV

[41] = tested on: Mus musculus; assay: Toxicity in cumulative po dosed BALB/c mouse; type: organism-based; conditions: in vivo
[42] = target: Serine/threonine-protein kinase PLK1 (Xenopus laevis, UniProt P70032); assay: Inhibition of xenopus recombinant Plx1 expressed in Sf21 cells by measuring autophosphorylation by 15-mins kinase assay; type: functional
Chain of Serine/threonine-protein kinase PLK1 (P70032 whole entry): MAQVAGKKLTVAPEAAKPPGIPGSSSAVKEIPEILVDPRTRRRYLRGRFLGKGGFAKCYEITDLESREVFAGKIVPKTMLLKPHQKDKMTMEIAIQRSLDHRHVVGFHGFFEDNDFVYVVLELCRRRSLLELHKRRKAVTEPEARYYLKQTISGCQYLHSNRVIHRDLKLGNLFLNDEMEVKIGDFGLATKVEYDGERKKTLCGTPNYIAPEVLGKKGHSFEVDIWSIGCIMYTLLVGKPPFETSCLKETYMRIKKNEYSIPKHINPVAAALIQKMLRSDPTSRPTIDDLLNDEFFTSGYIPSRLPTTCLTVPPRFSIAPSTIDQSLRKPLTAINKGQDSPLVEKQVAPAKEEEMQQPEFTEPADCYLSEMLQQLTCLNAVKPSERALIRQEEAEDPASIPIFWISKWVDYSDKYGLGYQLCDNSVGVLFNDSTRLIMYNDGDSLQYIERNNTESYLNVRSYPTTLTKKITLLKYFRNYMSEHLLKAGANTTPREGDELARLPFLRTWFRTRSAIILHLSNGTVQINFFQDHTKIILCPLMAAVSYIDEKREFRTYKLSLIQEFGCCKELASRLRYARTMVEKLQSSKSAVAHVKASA

[43] = tested on: Rattus norvegicus; assay: Effect on non-proliferating tissue in iv dosed Lewis rat assessed as toxic lesions in kidney on day 7; type: ADME, organism-based; conditions: in vivo
[44] = tested on: Rattus norvegicus; assay: Toxicity in Lewis rat assessed as WBC counts at 20 mg/kg, iv after 7 days; type: organism-based; set-up: dose 20 mg/kg, route intravenous; conditions: in vivo, 168 h
[45] = tested on: Mus musculus; assay: Subacute toxicity in CD1 mouse assessed as myeloid or lymphoid hyperplasia in bone marrow at 20 mg/kg, ip after 30 days; type: organism-based; set-up: dose 20 mg/kg, route intraperitoneal; conditions: in vivo, 720 h
[46] = target: T1, Serine/threonine-protein kinase PLK3; assay: Inhibition of human PLK3 in presence of 50 uM ATP
[47] = target: Cyclin-dependent kinase 2 (Homo sapiens, UniProt P24941); assay: Inhibition of CDK2
[48] = tested on: Mus musculus; assay: Subacute toxicity in CD1 mouse assessed as absolute lymphocyte counts at 20 mg/kg, ip after 30 days; type: organism-based; set-up: dose 20 mg/kg, route intraperitoneal; conditions: in vivo, 720 h

In the case of C/C(O)=C(\C#N)C(=O)Nc1cc(Br)ccc1Br, the Activity [1] is reported as 4.4 10^9/L, the IC50 [2] is reported as 61 µM and the LD10 [3] is reported as greater than 200 mg/kg. The IC50 [4] was greater than 500 µM, the Activity [5] was “Non-toxic” and the Activity [6] was “Non-toxic”. The Activity [7] was 6.2 10^9/L, the Activity [8] was 1.7 10^9/L and the IC50 [9] was 125 µM. For the same molecule, the Activity [10] was “Active”, the IC50 [11] was greater than 500 µM and the Activity [12] was 7 10^9/L. For the same molecule, the LD10 [13] was greater than 80 mg/kg, the Activity [14] was “Non-toxic” and the Activity [15] was 2.1 10^9/L. The Activity [16] was “Non-toxic”, the Activity [17] was 10.6 10^9/L and the Activity [18] was 4.3 10^9/L. The Activity [19] was 1 10^9/L, the Activity [20] was 1.3 10^9/L and the IC50 [21] was greater than 500 µM. The Activity [22] was “Non-toxic”, the Activity [23] was “Dose-dependent effect” and the IC50 [24] was greater than 500 µM. The Activity [25] was “Non-toxic”, the Activity [26] was 4.6 10^9/L and the Activity [27] was 1.7 10^9/L. The Activity [28] was “Non-toxic”, the IC50 [29] was 281 µM and the Activity [30] was 5.2 10^9/L. The Activity [31] was 1.4 10^9/L, the Activity [32] was 5.8 10^9/L and the Activity [33] was “Non-toxic”. The Activity [34] was 11.7 10^9/L, the Activity [35] was “Non-toxic” and the Activity [36] was 5.4 10^9/L. The Activity [37] was 6.6 10^9/L, the LD10 [38] was greater than 100 mg/kg and the Activity [39] was “Active”. It also gave an IC50 [40] greater than 500 µM, an LD10 [41] greater than 11200 mg/kg and an IC50 [42] of 10.3 µM. For the same molecule, the Activity [43] was “Non-toxic”, the Activity [44] was 11.7 10^9/L and the Activity [45] was “Non-toxic”. For the same molecule, the IC50 [46] was 79 µM, the IC50 [47] was greater than 500 µM and the Activity [48] was 3.9 10^9/L.
